Laboratory results as given in US10086001B2, “Composition for the treatment of cystic fibrosis” (SciPharm SàRL, priority 2009, dated 2018).

How the values were obtained:
[1] = system: IB3-1 cells; assay: Accumulation of [3H]cAMP in IB3-1 cells; format: cell-based, human; conditions: for accumulation of cAMP: bronchoepithelial IB3-1 cells
Description: IB3-1 cells were plated on 6 well-plates (0.2*10^6 cells/well) in complete growth medium (LHC-8+5% FCS). The following day, the adenine nucleotide pool was metabolically labelled by incubation with [3H]adenine (1 μCi/well) in Dulbecco's Modified Eagle Medium (DMEM) containing adenosine deaminase (1 unit/ml) for 4 h. Cyclc AMP formation was stimulated by 20 μM forskolin or the PGI2-analogue treprostinil (Remodulin®). The assay was performed in triplicates. The formation of [^3H]cAMP was determined by sequential chromatography on Dowex 50WX-4 and neutral alumina columns followed by liquid scintillation counting of the eluate.

[2] = system: human GFP-tagged wild type CFTR; assay: Whole cell patch clamp, activation of Cl-current in IB3-1 cells transiently expressing GFP-tagged wild type CFTR; format: cell-based
Description: The whole cell patch clamp technique was used for current recordings performed at 22±1.5° C. using an Axoclamp 200B patch clamp amplifier (Axon Instruments). Pipettes had resistances between 1 and 2 MΩ when filled with the recording pipette solution (composition: 110 mM CsCl, 5 mM EGTA, 2 mM MgCl2, 1 mM K2.ATP, 10 mM Hepes, pH adjusted to 7.2 with CsOH). Voltage-clamp protocols and data acquisition were performed with pclamp 6.0 software (Axon Instruments). Data were low-pass filtered at 2 kHz (−3 dB) and digitized at 10-20 kHz. Cells were continuously superfused with external solution (composition: 145 mM NaCl, 4.5 mM KCl, 2 mM CaCl2, 1 mM MgCl2, 5 mM glucose, 10 mM Hepes, pH adjusted to 7.4 with NaOH). When indicated, the external solution contained Treprostinil (10 μM) or forskolin (5 μM), switching between solutions was achieved by electronically controlled pressure valves.
I3B-1 cells were grown on dishes (Nunc, 3.5 cm diameter) covered with fibronectin (10 μg/mL) rat collagen 1 (30 μg/mL) and BSA 10 μg/mL) in LHC-8 medium (Gibco) containing 5% fetal calf serum (FCS). Cells were transiently transfected with a plasmid driving the expression of human GFP-tagged wild type CFTR by using Lipofectamine Plus® (Invitrogen) according to the instructions of the manufacturer.
Representative current amplitudes recorded in the whole cell patch clamp configuration at +60 mV. A transiently transfected I3B-1 cell expressing GFP-tagged wild type CFTR was selected under fluorescent light and clamped to a holding potential at −40 mV. Depolarization was induced by a voltage step to +60 mV for 50 ms and the current amplitude was recorded. Wash-in of Treprostinil (10 μM final concentration, TP) was initiated at the time point 50 s and terminated at 125 s. Forskolin was washed in at 275 s and was removed at 375 s.

EC50 ([1]; Homo sapiens, IB3-1 cells, [3H]adenine labelling, FIG. 1, read-out: Half-maximum stimulation of cAMP accumulation) [nM] | SMILES | accumulation of cAMP [1] | activation of the current induced by a depolarization from −40 mV holding potential to +60 mV ([2]; 10 μM Treprostinil, IB3-1 cell expressing CFTR-wt, FIG. 2) | time for current to decay to basal after washout ([2]; 10 μM Treprostinil, whole cell patch clamp at +60 mV) [s] | delay of response (maximum effect after wash-in, hysteresis in turn-off) ([2]; Treprostinil 10 μM or forskolin 5 μM, whole cell patch clamp)
– | O=C1CN2Cc3c(ccc(Cl)c3Cl)N=C2N1 [Anagrelide] | did not induce any accumulation cAMP | – | – | –
300 to 1000 | CCCCC[C@H](O)CC[C@@H]1[C@H]2Cc3cccc(OCC(=O)[O-])c3C[C@H]2C[C@H]1O.[Na+] [Treprostinil, (1R,2R,3aS,9aS)-[[2,3,3a,4,9,9a-hexahydro-2-hydroxy-1-[(3S)-3-hydroxyoctyl]-1H-benz[f]inden-5-yl]oxy]acetic acid monosodium salt] | concentration-dependent accumulation of cAMP | robust activation of the current | ~100 | only observed several s after wash-in
